US9458176B2, “Tetrahydroimidazo(1,5-D)[1,4]oxazepine derivative” (Eisai R&D Management Co., Ltd., priority 2013, dated 2016)

Biological target: human mGluR2 (Homo sapiens (Human), UniProt Q14416)
Assay: [35S]GTPγS binding assay (Affinity to mGluR2)
Format: biochemical
Settings: cell membrane fraction of HEK293 cells stably expressing human mGluR2; glutamic acid 10 μM
Protocol: (Preparation of Cell Membrane Fraction of HEK293 Cells Stably Expressing Human Metabotropic Glutamate Receptor 2 (mGluR2))
HEK293 cells stably expressing human mGluR2 and human glutamate transporter SLC1A3 were cultured in a Dulbecco's modified Eagle's medium with 10% fetal bovine serum (50 units/mL of penicillin, 50 μg/mL of streptomycin, 60 μg/mL of geneticin, 400 μg/mL of hygromycin B and 2 mM of glutamine) at 37° C. under 5% CO2. Confluent cell cultures were washed twice with PBS(−), and then scraped off with a cell scraper, and subjected to centrifugal separation at 4° C. and 1500 rpm for 5 minutes for collecting cells. The centrifuged sediment (cell pellet) was homogenized in a 20 mM HEPES buffer containing 10 mM EDTA (pH 7.4) by using sonicator and centrifuged at 4° C. and 1500×g for 30 minutes. The supernatant (soluble fraction) was subjected to the centrifugal separation at 4° C. and 40,000×g for 30 minutes, and thus, insoluble fraction was obtained. After additional centrifugally washing the obtained fraction with 20 mM HEPES buffer containing 10 mM EDTA (pH 7.4), the pellet was centrifugally suspended with a 20 mM HEPES buffer containing 0.1 mM EDTA, and the cell membrane fraction was obtained by the centrifugal separation at 4° C. and 40,000×g for 30 minutes. The thus obtained cell membrane fraction was suspended in a 20 mM HEPES buffer containing 0.1 mM EDTA in a protein concentration of 3 mg/mL, which was stored at −80° C.
([^35S]GTPγS Binding Assay)
The frozen cell membrane fraction prepared as described above was thawed before use, and the resultant was diluted with a buffer for a binding assay (final concentrations: 20 mM HEPES, 100 mM NaCl, 1 mM MgCl2, 3 μM GDP, 300 μg/mL saponin, 0.1% BSA). The compound of each example was added to a cell membrane fraction containing 1.8 to 3 μg/assay of membrane protein on a plate, followed by incubation at room temperature for 30 minutes. Thereafter, with glutamic acid (in a final concentration of 10 μM) added thereto, incubation was performed at room temperature for 15 minutes, and thereafter, [^35S]GTPγS (in a final concentration of 0.8 kBq) and 588 μg WGA-SPA beads were added thereto, followed by incubation at room temperature for 1 hour. After the incubation, the plate was subjected to the centrifugal separation at 2,500 rpm and room temperature, and then, membrane cell binding radioactivity was measured with a top count.
A [^35S]GTPγS binding amount obtained by performing the above-described reaction in the absence of glutamic acid was defined as nonspecific binding, and a difference from a [^35S]GTPγS binding amount obtained in the presence of glutamic acid was defined as specific binding. On the basis of ratios of inhibiting the specific binding at various concentrations of the compounds of the respective examples, inhibition curves were obtained. Concentrations of the compounds of the respective examples at which the specific [^35S]GTPγS binding amount was suppressed by 50% (IC50 values) were calculated on the basis of the inhibition curves and shown in Tables 8 and 9.

Chain of human mGluR2 (Q14416 19-872): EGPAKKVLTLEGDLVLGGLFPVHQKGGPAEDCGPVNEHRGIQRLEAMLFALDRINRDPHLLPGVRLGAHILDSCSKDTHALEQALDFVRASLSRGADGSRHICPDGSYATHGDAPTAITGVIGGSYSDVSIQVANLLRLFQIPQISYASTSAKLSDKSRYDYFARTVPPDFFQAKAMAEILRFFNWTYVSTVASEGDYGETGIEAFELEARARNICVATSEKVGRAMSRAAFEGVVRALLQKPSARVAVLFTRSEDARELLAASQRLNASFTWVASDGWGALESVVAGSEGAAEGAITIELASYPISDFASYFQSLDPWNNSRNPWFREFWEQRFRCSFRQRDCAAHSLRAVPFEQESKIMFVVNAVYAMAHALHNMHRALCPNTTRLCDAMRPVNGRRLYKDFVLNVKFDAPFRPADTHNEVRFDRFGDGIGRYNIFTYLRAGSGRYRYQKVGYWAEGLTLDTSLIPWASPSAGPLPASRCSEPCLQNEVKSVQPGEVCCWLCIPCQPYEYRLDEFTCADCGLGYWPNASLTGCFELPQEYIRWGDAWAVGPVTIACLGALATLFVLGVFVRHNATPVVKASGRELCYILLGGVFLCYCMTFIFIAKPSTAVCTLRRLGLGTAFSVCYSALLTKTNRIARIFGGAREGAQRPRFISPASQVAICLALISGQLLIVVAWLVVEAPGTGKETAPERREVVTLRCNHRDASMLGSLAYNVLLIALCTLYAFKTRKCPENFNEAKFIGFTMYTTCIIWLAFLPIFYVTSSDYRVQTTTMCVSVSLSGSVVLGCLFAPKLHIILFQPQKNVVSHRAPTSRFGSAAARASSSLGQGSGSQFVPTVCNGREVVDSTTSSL

Row | IC50 | SMILES
1 | 3 nM | Cc1cc(-c2nc(-c3ccc(OC4CC4)c(Cl)c3)n3c2CCO[C@H](C)C3)cc(C)n1 [Example 19, (R)-3-(3-chloro-4-cyclopropoxyphenyl)-1-(2,6-dimethylpyridin-4-yl)-6-methyl-5,6,8,9-tetrahydroimidazo[1,5-d][1,4]oxazepine]
2 | 3.4 nM | Cc1cc(-c2nc(-c3ccc(OC4CC4)c(C)c3)n3c2CCO[C@H](C)C3)cc(C)n1 [Example 20, (R)-3-(4-cyclopropoxy-3-methylphenyl)-1-(2,6-dimethylpyridin-4-yl)-6-methyl-5,6,8,9-tetrahydroimidazo[1,5-d][1,4]oxazepine]
3 | 7.5 nM | Cc1cc(-c2nc(-c3ccc(OC(F)F)c(Cl)c3)n3c2CCO[C@H](C)C3)ccn1 [Example 21, (R)-3-(3-chloro-4-(difluoromethoxy)phenyl)-6-methyl-1-(2-methylpyridin-4-yl)-5,6,8,9-tetrahydroimidazo[1,5-d][1,4]oxazepine]
4 | 4.1 nM | Cc1cc(-c2nc(-c3ccc(OC4CC4)c(C)c3)n3c2CCO[C@H](CF)C3)cc(C)n1 [Example 22, (S)-3-(4-cyclopropoxy-3-methylphenyl)-1-(2,6-dimethylpyridin-4-yl)-6-(fluoromethyl)-5,6,8,9-tetrahydroimidazo[1,5-d][1,4]oxazepine]
5 | 19.4 nM | COc1cc(-c2nc(-c3cc(C)nc(C)c3)c3n2C[C@@H](C)OCC3)ccc1C(C)(F)F [Example 23, (R)-3-(4-(1,1-difluoroethyl)-3-methoxyphenyl)-1-(2,6-dimethylpyridin-4-yl)-6-methyl-5,6,8,9-tetrahydroimidazo[1,5-d][1,4]oxazepine]
6 | 3.2 nM | COc1cc(-c2nc(-c3cc(C)nc(C)c3)c3n2C[C@@H](C)OCC3)ccc1OC(F)(F)F [Example 25, (R)-1-(2,6-dimethylpyridin-4-yl)-3-(3-methoxy-4-(trifluoromethoxy)phenyl)-6-methyl-5,6,8,9-tetrahydroimidazo[1,5-d][1,4]oxazepine]
7 | 13.5 nM | COc1cc(-c2nc(-c3ccnc(C)c3)c3n2C[C@@H](CF)OCC3)ccc1Cl [Example 26, (S)-3-(4-chloro-3-methoxyphenyl)-6-fluoromethyl-1-(2-methylpyridin-4-yl)-5,6,8,9-tetrahydroimidazo[1,5-d][1,4]oxazepine]
8 | 3.5 nM | Cc1cc(-c2nc(-c3ccc(OC(F)F)c(C)c3)n3c2CCO[C@H](CF)C3)cc(C)n1 [Example 27, (S)-3-(4-(difluoromethoxy)-3-methylphenyl)-1-(2,6-dimethylpyridin-4-yl)-6-(fluoromethyl)-5,6,8,9-tetrahydroimidazo[1,5-d][1,4]oxazepine]
9 | 16.2 nM | COc1cc(-c2nc(-c3cc(C)nc(C)c3)c3n2C[C@@H](CF)OCC3)ccc1C(F)F [Example 28, (S)-3-(4-(difluoromethyl)-3-methoxyphenyl)-1-(2,6-dimethylpyridin-4-yl)-6-(fluoromethyl)-5,6,8,9-tetrahydroimidazo[1,5-d][1,4]oxazepine]
10 | 3.8 nM | COc1cc(-c2nc(-c3cc(C)nc(C)c3)c3n2C[C@@H](CF)OCC3)ccc1C(F)(F)F [Example 29, (S)-1-(2,6-dimethylpyridin-4-yl)-6-(fluoromethyl)-3-(3-methoxy-4-(trifluoromethyl)phenyl)-5,6,8,9-tetrahydroimidazo[1,5-d][1,4]oxazepine]
11 | 5.2 nM | COc1cc(-c2nc(-c3cc(C)nc(CF)c3)c3n2C[C@@H](C)OCC3)ccc1OC(F)(F)F [Example 30, (R)-1-(2-(fluoromethyl)-6-methylpyridin-4-yl)-3-(3-methoxy-4-(trifluoromethoxy)phenyl)-6-methyl-5,6,8,9-tetrahydroimidazo[1,5-d][1,4]oxazepine]
12 | 7.9 nM | COc1cc(-c2nc(-c3cc(C)nc(C(F)F)c3)c3n2C[C@@H](CF)OCC3)ccc1C(F)(F)F [Example 31, (S)-1-(2-(difluoromethyl)-6-methylpyridin-4-yl)-6-(fluoromethyl)-3-(3-methoxy-4-(trifluoromethyl)phenyl)-5,6,8,9-tetrahydroimidazo[1,5-d][1,4]oxazepine]
13 | 2.8 nM | Cc1cc(-c2nc(-c3ccc(OC(F)F)c(Cl)c3)n3c2CCO[C@H](C)C3)cc(C)n1 [Example 32, (R)-3-(3-chloro-4-(difluoromethoxy)phenyl)-1-(2,6-dimethylpyridin-4-yl)-6-methyl-5,6,8,9-tetrahydroimidazo[1,5-d][1,4]oxazepine]
14 | 5 nM | COc1ccc(-c2nc(-c3cc(C)nc(C)c3)c3n2C[C@@H](C)OCC3)cc1Cl [Example 33, (R)-3-(3-chloro-4-methoxyphenyl)-1-(2,6-dimethylpyridin-4-yl)-6-methyl-5,6,8,9-tetrahydroimidazo[1,5-d][1,4]oxazepine]
15 | 2.8 nM | CCOc1ccc(-c2nc(-c3cc(C)nc(C)c3)c3n2C[C@@H](C)OCC3)cc1Cl [Example 34, (R)-3-(3-chloro-4-ethoxyphenyl)-1-(2,6-dimethylpyridin-4-yl)-6-methyl-5,6,8,9-tetrahydroimidazo[1,5-d][1,4]oxazepine]
16 | 2.7 nM | Cc1cc(-c2nc(-c3ccc(OC(C)C)c(Cl)c3)n3c2CCO[C@H](C)C3)cc(C)n1 [Example 35, (R)-3-(3-chloro-4-isopropoxyphenyl)-1-(2,6-dimethylpyridin-4-yl)-6-methyl-5,6,8,9-tetrahydroimidazo[1,5-d][1,4]oxazepine]
17 | 10 nM | COc1ccc(-c2nc(-c3cc(C)nc(C)c3)c3n2C[C@@H](CF)OCC3)cc1Cl [Example 36, (S)-3-(3-chloro-4-methoxyphenyl)-1-(2,6-dimethylpyridin-4-yl)-6-(fluoromethyl)-5,6,8,9-tetrahydroimidazo[1,5-d][1,4]oxazepine]
18 | 6 nM | CCOc1ccc(-c2nc(-c3cc(C)nc(C)c3)c3n2C[C@@H](CF)OCC3)cc1Cl [Example 37, (S)-3-(3-chloro-4-ethoxyphenyl)-1-(2,6-dimethylpyridin-4-yl)-6-(fluoromethyl)-5,6,8,9-tetrahydroimidazo[1,5-d][1,4]oxazepine]
19 | 5.4 nM | Cc1cc(-c2nc(-c3ccc(OC(C)C)c(Cl)c3)n3c2CCO[C@H](CF)C3)cc(C)n1 [Example 38, (S)-3-(3-chloro-4-isopropoxyphenyl)-1-(2,6-dimethylpyridin-4-yl)-6-(fluoromethyl)-5,6,8,9-tetrahydroimidazo[1,5-d][1,4]oxazepine]
20 | 2.5 nM | Cc1cc(-c2nc(-c3ccc(OC(F)(F)F)c(CF)c3)n3c2CCO[C@H](C)C3)ccn1 [Example 39, (R)-3-(3-(fluoromethyl)-4-(trifluoromethoxy)phenyl)-6-methyl-1-(2-methylpyridin-4-yl)-5,6,8,9-tetrahydroimidazo[1,5-d][1,4]oxazepine]
21 | 4.7 nM | Cc1cc(-c2nc(-c3ccc(OC(F)F)c(C)c3)n3c2CCO[C@H](CF)C3)ccn1 [Example 40, (S)-3-(4-(difluoromethoxy)-3-methylphenyl)-6-(fluoromethyl)-1-(2-methylpyridin-4-yl)-5,6,8,9-tetrahydroimidazo[1,5-d][1,4]oxazepine]
22 | 4.1 nM | COc1cc(-c2nc(-c3ccnc(C)c3)c3n2C[C@@H](CF)OCC3)ccc1C(F)(F)F [Example 41, (S)-6-(fluoromethyl)-3-(3-methoxy-4-(trifluoromethyl)phenyl)-1-(2-methylpyridin-4-yl)-5,6,8,9-tetrahydroimidazo[1,5-d][1,4]oxazepine]
23 | 45.3 nM | Cc1cc(-c2nc(-c3ccc(OC(F)(F)F)cc3)n3c2CCOCC3)cc(C)n1 [Example 42]
24 | 90 nM | Cc1cc(-c2nc(-c3ccc(OC(F)(F)F)cc3)n3c2CCOCC3)ccn1 [Example 43]
25 | 73.9 nM | Cc1cc(-c2nc(-c3ccc(F)c(OC(F)(F)F)c3)n3c2CCOCC3)cc(C)n1 [Example 45]
26 | 65.6 nM | COc1cc(-c2nc(-c3cc(C)nc(C)c3)c3n2CCOCC3)ccc1C [Example 46]
27 | 242 nM | COc1cc(-c2nc(-c3ccnc(CO)c3)c3n2C[C@@H](C)OCC3)ccc1Cl [Example 47]
28 | 40 nM | Cc1cc(-c2nc(-c3ccc(Cl)c(OC(F)(F)F)c3)n3c2CCOCC3)cc(C)n1 [Example 48]
29 | 11.4 nM | Cc1cc(-c2nc(-c3ccc(OCc4ccccc4)c(F)c3)n3c2CCOCC3)cc(C)n1 [Example 49]
30 | 14.2 nM | Cc1cc(-c2nc(-c3ccc(OC(F)(F)F)cc3)n3c2CCO[C@H](C)C3)ccn1 [Example 50]
